Laboratory results published in ChEMBL document CHEMBL1131172 (J Med Chem, 1998).

Assays:
Dihydrofolate reductase [1] = target: T1, Dihydrofolate reductase (Pneumocystis carinii, UniProt P16184)
T1 sequence (P16184 whole entry): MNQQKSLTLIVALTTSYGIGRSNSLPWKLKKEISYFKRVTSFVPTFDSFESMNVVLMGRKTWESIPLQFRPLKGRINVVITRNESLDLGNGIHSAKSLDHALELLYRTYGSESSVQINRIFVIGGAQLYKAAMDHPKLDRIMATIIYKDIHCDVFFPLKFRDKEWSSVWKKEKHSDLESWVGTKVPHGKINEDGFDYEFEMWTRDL
Description: Inhibitory activity against dihydrofolate reductase (DHFR) from Pneumocystis carinii

MOLT-4 = assay: Inhibition of the growth of leukemia (MOLT-4) cell line.; format: functional; conditions: Homo sapiens
MDA-N [2] = assay: Inhibition of the growth of breast cancer(MDA-N) cell line; format: functional; conditions: Homo sapiens
DU-145 [3] = assay: Inhibition of the growth of prostate cancer(DU-145) cell line at 0.01 uM; format: functional; conditions: Homo sapiens
NCI-H322M = assay: Inhibition of the growth of non-small-cell lung cancer (NCI-H322M) cell line; conditions: Homo sapiens
NCI-H522 [4] = assay: inhibition of the growth of non-small-cell lung cancer (NCI-H522) cell line; format: functional; conditions: Homo sapiens
RPMI-8226 [5] = assay: Inhibition of the growth of leukemia (RPMI-8226) cell line; format: functional; conditions: Homo sapiens
HCT-15 [6] = assay: Inhibition of the growth of colon cancer(HCT-15) cell line. value in parentheses is percent inhibition at 0.01 uM; format: functional; conditions: Homo sapiens
Dihydrofolate reductase [7] = target: T2, Dihydrofolate reductase (Rattus norvegicus, UniProt Q920D2)
T2 sequence (Q920D2 whole entry): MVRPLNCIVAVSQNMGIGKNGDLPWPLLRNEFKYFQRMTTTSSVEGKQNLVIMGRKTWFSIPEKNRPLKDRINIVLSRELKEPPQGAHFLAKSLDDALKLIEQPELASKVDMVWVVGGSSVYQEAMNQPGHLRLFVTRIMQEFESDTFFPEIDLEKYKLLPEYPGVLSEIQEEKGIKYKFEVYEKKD
Description: Inhibitory activity against dihydrofolate reductase (DHFR) from rat liver

NCI/ADR-RES [8] = assay: Inhibition of the growth of breast cancer (MCF7/ADR-RES) cell line at 0.01 uM; format: functional; conditions: Homo sapiens
SR [9] = assay: Inhibition of the growth of leukemia(SR) cell line. value in parentheses is percent inhibition at 0.01 uM; format: functional; conditions: Homo sapiens
HCT-116 [10] = assay: Inhibition of the growth of colon cancer(HCT116) cell line at 0.01 uM; format: functional; conditions: Homo sapiens
SF-539 = assay: inhibition of the growth of CNS cancer(SF-539) cell line. value in parentheses is percent inhibition at 0.01 uM; format: functional; conditions: Homo sapiens
SF-295 [11] = assay: Inhibition of the growth of CNS cancer(SF-295) cell line at 0.01 uM; format: functional; conditions: Homo sapiens
CAKI-1 [12] = assay: Inhibition of the growth of renal cancer(CAKI-1) cell line; format: functional; conditions: Homo sapiens
NCI-H23 [13] = assay: Inhibition of the growth of non-small-cell lung cancer (NCI-H23) cell line; format: functional; conditions: Homo sapiens
NCI/ADR-RES [14] = assay: Inhibition of the growth of breast cancer (MCF7/ADR-RES) cell line; format: functional; conditions: Homo sapiens
SF-268 [15] = assay: Inhibition of the growth of CNS cancer(SF-268) cell line at 0.01 uM; format: functional; conditions: Homo sapiens
NCI-H460 [16] = assay: inhibition of the growth of non-small-cell lung cancer (NCI-H460) cell line at 0.01 uM; format: functional; conditions: Homo sapiens
SR [17] = assay: Inhibition of the growth of leukemia(SR) cell line. value in parentheses is percent inhibition at 0.01 uM at 0.01 uM; format: functional; conditions: Homo sapiens
MDA-MB-435 [18] = assay: Inhibition of the growth of breast cancer (MDA-MB-435) cell line at 0.01 uM; format: functional; conditions: Homo sapiens
M14 [19] = assay: Inhibition of the growth of melanoma cancer (M14) cell line at 0.01 uM; format: functional; conditions: Homo sapiens
IGROV-1 [20] = assay: Inhibition of the growth of ovarian cancer(IGROVI) cell line; format: functional; conditions: Homo sapiens
A549 [21] = assay: Inhibition of the growth of non-small-cell lung cancer (A549/ATCC) cell line; format: functional; conditions: Homo sapiens
HCT-116 [22] = assay: inhibition of the growth of colon cancer(HCT116) cell line; format: functional; conditions: Homo sapiens
M14 [23] = assay: Inhibition of the growth of melanoma cancer (M14) cell line; format: functional; conditions: Homo sapiens
OVCAR-8 [24] = assay: Inhibition of the growth of ovarian cancer(OVCAR-8) cell line; format: functional; conditions: Homo sapiens
SK-MEL-5 [25] = assay: Inhibition of the growth of melanoma cancer (SK-MEL-5) cell line at 0.01 uM; format: functional; conditions: Homo sapiens
SNB-19 [26] = assay: Inhibition of the growth of CNS cancer(SNB-19) cell line at 0.01 uM; format: functional; conditions: Homo sapiens
NCI-H23 [27] = assay: Inhibition of the growth of non-small-cell lung cancer (NCI-H23) cell line at 0.01 uM; format: functional; conditions: Homo sapiens
RPMI-8226 [28] = assay: Inhibition of the growth of leukemia (RPMI-8226) cell line at 0.01 uM; format: functional; conditions: Homo sapiens
CAKI-1 [29] = assay: Inhibition of the growth of renal cancer(CAKI-1) cell line at 0.01 uM; format: functional; conditions: Homo sapiens
786-0 = assay: Inhibition of the growth of renal cancer(786-0) cell line. value in parentheses is percent inhibition at 0.01 uM; format: functional; conditions: Homo sapiens
[30] = target: T3, Bifunctional dihydrofolate reductase-thymidylate synthase (Toxoplasma gondii, UniProt Q07422)
T3 sequence (Q07422 whole entry): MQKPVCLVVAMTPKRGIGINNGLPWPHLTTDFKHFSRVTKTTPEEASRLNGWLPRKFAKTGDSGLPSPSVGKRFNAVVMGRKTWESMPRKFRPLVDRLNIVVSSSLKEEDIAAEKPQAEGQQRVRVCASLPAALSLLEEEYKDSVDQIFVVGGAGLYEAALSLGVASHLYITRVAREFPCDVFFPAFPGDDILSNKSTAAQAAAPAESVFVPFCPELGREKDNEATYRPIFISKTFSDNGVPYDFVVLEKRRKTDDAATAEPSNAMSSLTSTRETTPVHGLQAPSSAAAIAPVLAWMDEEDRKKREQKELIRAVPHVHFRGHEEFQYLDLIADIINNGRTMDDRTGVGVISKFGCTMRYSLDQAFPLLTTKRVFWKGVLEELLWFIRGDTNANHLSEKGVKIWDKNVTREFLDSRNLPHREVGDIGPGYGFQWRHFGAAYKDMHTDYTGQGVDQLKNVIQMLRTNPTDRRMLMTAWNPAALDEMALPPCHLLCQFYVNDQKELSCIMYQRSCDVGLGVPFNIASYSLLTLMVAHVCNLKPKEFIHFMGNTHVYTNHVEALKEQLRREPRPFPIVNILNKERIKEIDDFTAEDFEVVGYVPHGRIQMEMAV
Description: Inhibitory activity against dihydrofolate reductase (DHFR) from Toxoplasma gondii

MDA-N [31] = assay: Inhibition of the growth of breast cancer(MDA-N) cell line at 0.01 uM; format: functional; conditions: Homo sapiens
A549 [32] = assay: Inhibition of the growth of non-small-cell lung cancer (A549/ATCC) cell line at 0.01 uM; format: functional; conditions: Homo sapiens
SF-268 [33] = assay: inhibition of the growth of CNS cancer(SF-268) cell line; format: functional; conditions: Homo sapiens
IGROV-1 [34] = assay: Inhibition of the growth of ovarian cancer(IGROVI) cell line at 0.01 uM; format: functional; conditions: Homo sapiens
OVCAR-8 [35] = assay: Inhibition of the growth of ovarian cancer(OVCAR-8) cell line at 0.01 uM; format: functional; conditions: Homo sapiens
UO-31 [36] = assay: Inhibition of the growth of renal cancer(UO-31) cell line; format: functional; conditions: Homo sapiens
MDA-MB-435 [37] = assay: Inhibition of the growth of breast cancer (MDA-MB-435) cell line; format: functional; conditions: Homo sapiens
SF-295 [38] = assay: inhibition of the growth of CNS cancer(SF-295) cell line; format: functional; conditions: Homo sapiens
KM12 = assay: inhibition of the growth of colon cancer(KM-12) cell line at 0.01 uM; format: functional; conditions: Homo sapiens
SK-MEL-5 [39] = assay: Inhibition of the growth of melanoma cancer (SK-MEL-5) cell line; format: functional; conditions: Homo sapiens
DU-145 [40] = assay: Inhibition of the growth of prostate cancer(DU-145) cell line; format: functional; conditions: Homo sapiens
NCI-H460 [41] = assay: Inhibition of the growth of non-small-cell lung cancer (NCI-H460) cell line; format: functional; conditions: Homo sapiens
UO-31 [42] = assay: Inhibition of the growth of renal cancer(UO-31) cell line at 0.01 uM; format: functional; conditions: Homo sapiens
MCF7 = assay: Inhibition of the growth of breast cancer (MCF-7) cell line; format: functional; conditions: Homo sapiens
SNB-19 [43] = assay: inhibition of the growth of CNS cancer(SNB-19) cell line; format: functional; conditions: Homo sapiens
HCT-15 [44] = assay: inhibition of the growth of colon cancer(HCT-15) cell line; format: functional; conditions: Homo sapiens
NCI-H522 [45] = assay: Inhibition of the growth of non-small-cell lung cancer (NCI-H522) cell line at 0.01 uM; format: functional; conditions: Homo sapiens

## COc1ccc(N(C)c2ccc3nc(N)nc(N)c3n2)cc1
Dihydrofolate reductase [1]
  IC50: 0.22 µM
MOLT-4
  GI50: 0.02 µM
MDA-N [2]
  GI50: < 0.01 µM
DU-145 [3]
  inhibition at 0.01 µM: 51%
NCI-H322M
  GI50: 0.02 µM
NCI-H522 [4]
  GI50: < 0.01 µM
RPMI-8226 [5]
  GI50: < 0.01 µM
HCT-15 [6]
  inhibition at 0.01 µM: 67%
Dihydrofolate reductase [7]
  IC50: 0.0068 µM
NCI/ADR-RES [8]
  inhibition at 0.01 µM: 100%
SR [9]
  GI50: < 0.01 µM
HCT-116 [10]
  inhibition at 0.01 µM: 83%
SF-539
  GI50: 0.03 µM
SF-295 [11]
  inhibition at 0.01 µM: 62%
CAKI-1 [12]
  GI50: < 0.01 µM
NCI-H23 [13]
  GI50: < 0.01 µM
NCI/ADR-RES [14]
  GI50: < 0.01 µM
SF-268 [15]
  inhibition at 0.01 µM: 68%
NCI-H460 [16]
  inhibition at 0.01 µM: 84%
SR [17]
  inhibition at 0.01 µM: 53%
MDA-MB-435 [18]
  inhibition at 0.01 µM: 68%
M14 [19]
  inhibition at 0.01 µM: 55%
IGROV-1 [20]
  GI50: < 0.01 µM
A549 [21]
  GI50: < 0.01 µM
HCT-116 [22]
  GI50: < 0.01 µM
M14 [23]
  GI50: < 0.01 µM
OVCAR-8 [24]
  GI50: < 0.01 µM
SK-MEL-5 [25]
  inhibition at 0.01 µM: 65%
SNB-19 [26]
  inhibition at 0.01 µM: 51%
NCI-H23 [27]
  inhibition at 0.01 µM: 54%
RPMI-8226 [28]
  inhibition at 0.01 µM: 59%
CAKI-1 [29]
  inhibition at 0.01 µM: 59%
786-0
  GI50: 0.59 µM
[30]
  IC50: 0.0086 µM
MDA-N [31]
  inhibition at 0.01 µM: 66%
A549 [32]
  inhibition at 0.01 µM: 67%
SF-268 [33]
  GI50: < 0.01 µM
IGROV-1 [34]
  inhibition at 0.01 µM: 62%
OVCAR-8 [35]
  inhibition at 0.01 µM: 90%
UO-31 [36]
  GI50: < 0.01 µM
MDA-MB-435 [37]
  GI50: < 0.01 µM
SF-295 [38]
  GI50: < 0.01 µM
KM12
  GI50: 0.02 µM
SK-MEL-5 [39]
  GI50: < 0.01 µM
DU-145 [40]
  GI50: < 0.01 µM
NCI-H460 [41]
  GI50: < 0.01 µM
UO-31 [42]
  inhibition at 0.01 µM: 74%
MCF7
  GI50: 0.06 µM
SNB-19 [43]
  GI50: < 0.01 µM
HCT-15 [44]
  GI50: < 0.01 µM
NCI-H522 [45]
  inhibition at 0.01 µM: 53%
